Measurements from patent publication US20220298163A1, “BTK INHIBITORS WITH IMPROVED DUAL SELECTIVITY” (BEIGENE, LTD., priority 2017, published 2022).

Columns and labels:
[1] = Rat pharmacokinetic study; format: in vivo, Male Sprague Dawley rats; conditions: for AUC(0-inf) / bioavailability / clearance / Cmax: male, Sprague Dawley, plasma, rat; for AUC(0-inf): IV 1 mg·kg^−1 / PO 5 mg·kg^−1 study, route not given; for bioavailability: oral bioavailability, PO 5 mg·kg^−1 vs IV 1 mg·kg^−1; for clearance: single IV 1 mg·kg^−1; for Cmax: single PO 5 mg·kg^−1
Tec = biological target: T1, Tec (Homo sapiens, UniProt P42680); assay: Biochemical kinase selectivity: IC50 determination of Tec; conditions: for IC50: TR-FRET, 280 μM ATP; for Fold of Tec/Btk: ratio of IC50 values
T1 sequence (P42680 1-631): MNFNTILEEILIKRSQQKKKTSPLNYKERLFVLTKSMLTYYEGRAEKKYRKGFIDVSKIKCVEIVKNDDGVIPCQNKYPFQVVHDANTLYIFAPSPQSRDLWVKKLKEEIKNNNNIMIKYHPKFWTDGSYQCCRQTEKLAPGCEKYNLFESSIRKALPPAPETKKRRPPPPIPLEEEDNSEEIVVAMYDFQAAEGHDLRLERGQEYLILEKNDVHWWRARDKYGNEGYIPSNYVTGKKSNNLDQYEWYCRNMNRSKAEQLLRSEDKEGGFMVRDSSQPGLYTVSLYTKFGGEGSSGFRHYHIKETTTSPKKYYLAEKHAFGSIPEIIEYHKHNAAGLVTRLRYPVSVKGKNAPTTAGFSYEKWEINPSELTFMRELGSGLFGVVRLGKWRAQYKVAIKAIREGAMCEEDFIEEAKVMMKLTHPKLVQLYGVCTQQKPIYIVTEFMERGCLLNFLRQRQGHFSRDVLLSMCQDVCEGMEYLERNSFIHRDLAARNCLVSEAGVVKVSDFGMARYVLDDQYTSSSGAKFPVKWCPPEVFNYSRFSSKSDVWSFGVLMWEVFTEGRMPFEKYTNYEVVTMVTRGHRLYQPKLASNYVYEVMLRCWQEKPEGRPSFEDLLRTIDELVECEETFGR

[2] = biological target: T2, phosphorylated Btk at Tyr223 (Homo sapiens, UniProt Q06187); assay: Btk pY223 cellular assay (HTRF, Ramos cells); format: cell-based; conditions: compound 3 hours, pervanadate or Na3VO4 stimulation, read-out: IC50 (nM) in cell Btk pY223
T2 construct: determine the endogenous levels of phosphorylated Btk at Tyr223; endogenous in cells; host or cells: Ramos cells (CRL-1596, ATCC)
T2 sequence (Q06187 whole entry): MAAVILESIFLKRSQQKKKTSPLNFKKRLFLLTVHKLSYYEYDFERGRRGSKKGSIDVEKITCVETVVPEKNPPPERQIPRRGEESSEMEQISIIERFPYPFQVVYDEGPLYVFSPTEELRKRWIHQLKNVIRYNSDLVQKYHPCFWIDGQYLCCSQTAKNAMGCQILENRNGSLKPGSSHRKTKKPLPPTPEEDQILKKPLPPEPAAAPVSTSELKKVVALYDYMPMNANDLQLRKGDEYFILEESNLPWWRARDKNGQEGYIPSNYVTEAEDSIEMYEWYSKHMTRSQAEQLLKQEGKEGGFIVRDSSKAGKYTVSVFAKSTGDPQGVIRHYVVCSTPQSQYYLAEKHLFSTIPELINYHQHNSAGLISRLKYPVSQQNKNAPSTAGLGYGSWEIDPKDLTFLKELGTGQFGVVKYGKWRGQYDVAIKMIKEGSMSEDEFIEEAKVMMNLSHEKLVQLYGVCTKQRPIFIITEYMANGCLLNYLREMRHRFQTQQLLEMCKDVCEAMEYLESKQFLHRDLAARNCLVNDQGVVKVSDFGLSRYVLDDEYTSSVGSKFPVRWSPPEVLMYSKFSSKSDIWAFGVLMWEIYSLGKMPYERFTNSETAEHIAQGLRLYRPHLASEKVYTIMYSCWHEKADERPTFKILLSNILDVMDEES
Description: Btk pY223 cellular assay is an HTRF based assay intended to determine the endogenous levels of phosphorylated Btk at Tyr223.
Briefly, Ramos cells were serum starved in 0.5% FBS-containing RPMI1640 overnight. The cells were then incubated with interested compounds at various concentrations in a CO2 incubator for 3 hours. After the incubation, cells were stimulated with 1 mM pervanadate (PV) or Na3VO4 (OV) for 20 min. Then, the cells were collected and lysed with 1× lysis buffer at RT for 10 min (4× lysis buffer supplied in the kit). 1× antibody mix was prepared by diluting anti-Btk-d2 and anti-pBtk-K in detection buffer (supplied in the kit). […] After mixing gently and spinning briefly, the plate was sealed up and kept in dark at RT for 18 hours. […] IC50 values were calculated with GraphPad Prism software using the sigmoidal dose-response function.

EGFR = EGFR (Homo sapiens, UniProt P00533); assay: Biochemical kinase selectivity: IC50 determination of EGFR; conditions: for IC50: TR-FRET, 20 μM ATP; for Fold of EGFR/Btk: ratio of IC50 values
Chain of EGFR (P00533 25-1210): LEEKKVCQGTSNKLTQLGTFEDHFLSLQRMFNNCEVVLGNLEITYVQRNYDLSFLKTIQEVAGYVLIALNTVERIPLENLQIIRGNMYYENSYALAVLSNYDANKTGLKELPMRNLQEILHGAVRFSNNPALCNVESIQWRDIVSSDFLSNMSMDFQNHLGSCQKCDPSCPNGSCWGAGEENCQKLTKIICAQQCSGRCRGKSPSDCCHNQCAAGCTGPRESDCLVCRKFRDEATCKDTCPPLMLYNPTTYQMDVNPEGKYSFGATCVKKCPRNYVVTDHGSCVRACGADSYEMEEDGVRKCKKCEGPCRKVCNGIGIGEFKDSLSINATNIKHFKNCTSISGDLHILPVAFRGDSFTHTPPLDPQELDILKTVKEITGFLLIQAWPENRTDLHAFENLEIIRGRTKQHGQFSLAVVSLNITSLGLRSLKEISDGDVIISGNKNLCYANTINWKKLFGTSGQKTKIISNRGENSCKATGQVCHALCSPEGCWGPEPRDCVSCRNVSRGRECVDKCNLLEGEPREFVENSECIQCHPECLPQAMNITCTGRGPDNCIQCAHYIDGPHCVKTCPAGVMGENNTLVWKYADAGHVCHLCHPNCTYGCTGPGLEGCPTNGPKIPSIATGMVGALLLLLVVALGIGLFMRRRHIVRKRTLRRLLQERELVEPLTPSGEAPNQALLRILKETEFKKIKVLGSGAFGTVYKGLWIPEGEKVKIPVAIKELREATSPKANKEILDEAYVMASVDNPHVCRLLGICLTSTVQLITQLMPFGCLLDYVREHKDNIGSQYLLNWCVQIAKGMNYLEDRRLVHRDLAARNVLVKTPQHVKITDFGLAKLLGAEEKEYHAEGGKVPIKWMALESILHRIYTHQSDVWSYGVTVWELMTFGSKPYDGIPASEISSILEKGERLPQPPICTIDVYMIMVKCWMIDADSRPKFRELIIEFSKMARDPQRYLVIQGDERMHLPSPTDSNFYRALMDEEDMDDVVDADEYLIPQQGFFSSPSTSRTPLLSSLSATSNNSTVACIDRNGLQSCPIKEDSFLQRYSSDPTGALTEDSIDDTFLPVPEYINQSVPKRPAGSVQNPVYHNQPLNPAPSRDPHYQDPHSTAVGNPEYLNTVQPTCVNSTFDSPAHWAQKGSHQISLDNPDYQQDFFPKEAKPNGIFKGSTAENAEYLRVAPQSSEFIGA

[3] = other Btk inhibitors, meeting abstract 2016; cited from earlier work
[4] = biological target: T3, Btk kinase (aa2-659, Carna Biosciences) (Homo sapiens, UniProt Q06187); assay: Btk kinase enzymatic assay (TR-FRET); format: biochemical; conditions: for IC50: TR-FRET, 30 μM ATP, compound incubated with kinase 60 minutes
T3 construct: purchased Carna Biosciences
T3 sequence (Q06187 2-659): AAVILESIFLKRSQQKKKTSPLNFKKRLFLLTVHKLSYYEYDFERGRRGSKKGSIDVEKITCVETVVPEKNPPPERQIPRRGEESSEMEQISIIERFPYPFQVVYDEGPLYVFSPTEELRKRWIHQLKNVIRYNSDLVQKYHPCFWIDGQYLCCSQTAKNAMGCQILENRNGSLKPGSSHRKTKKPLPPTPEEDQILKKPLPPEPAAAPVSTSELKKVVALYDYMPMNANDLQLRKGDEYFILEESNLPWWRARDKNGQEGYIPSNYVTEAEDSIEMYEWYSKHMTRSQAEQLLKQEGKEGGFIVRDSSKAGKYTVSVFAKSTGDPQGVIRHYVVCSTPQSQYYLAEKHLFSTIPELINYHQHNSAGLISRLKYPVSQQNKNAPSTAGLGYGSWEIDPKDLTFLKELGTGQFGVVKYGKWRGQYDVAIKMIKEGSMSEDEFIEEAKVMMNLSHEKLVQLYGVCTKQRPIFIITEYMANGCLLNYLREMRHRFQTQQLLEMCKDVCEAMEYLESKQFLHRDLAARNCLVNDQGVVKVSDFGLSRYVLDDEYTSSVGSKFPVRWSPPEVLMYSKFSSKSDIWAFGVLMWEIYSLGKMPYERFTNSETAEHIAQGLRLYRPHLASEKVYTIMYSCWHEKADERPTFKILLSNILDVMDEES

SMILES | AUC(0-inf) [1] | bioavailability [1] | clearance [1] | Cmax [1] | plasma clearance, Cmax, AUC and oral bioavailability compared to compound 167* ([1]; rat PK study, Table IV) | IC50 (Tec) | IC50 [2] | IC50 (EGFR) | bleeding adverse event (in words) [3] | Fold of Tec/Btk (Tec) | IC50 [4] | Fold of EGFR/Btk (EGFR) | affinity / inhibitory activity for Btk (in words) [4]
C=CC(=O)N1CCC(C2CCNc3c(C(N)=O)c(-c4cc(OC)c(C5CC5)c(OC)c4)nn32)CC1 (single isomer, unassigned) [Example A2a, (S or R)-7-(1-acryloylpiperidin-4-yl)-2-(4-cyclopropyl-3,5-dimethoxyphenyl)-4,5,6,7-tetrahydropyrazolo[1,5-a]pyrimidine-3-carboxamide] | 1710 ng·h/mL | 73.7% | 42.8 mL/min/kg | 859 ng/mL | lower plasma clearance values, higher Cmax, AUC and oral bioavailability | – | – | – | – | – | – | – | –
C=CC(=O)Nc1ccccc1C1CCNc2c(C(N)=O)c(-c3cc(OC)c(OC)c(OC)c3)nn21 (centres unmarked) [167^#] | 65.1 ng·h/mL | 11.8% | 152 mL/min/kg | 60.4 ng/mL | – | 157 nM | 83.5 nM | 9.5 nM | – | – | – | – | –
CC#CC(=O)N1CCC[C@H]1c1nc(-c2ccc(C(=O)Nc3ccccn3)cc2)c2c(N)nccn12 [ACP-196] | – | – | – | – | – | – | – | – | Bleeding as a common adverse event (AE) | – | – | – | –
C=CC(=O)N1CCC([C@@H]2CCNc3c(C(N)=O)c(-c4ccc(Oc5ccccc5)cc4)nn32)CC1 [BGB-3111] | – | – | – | – | – | – | – | – | Bleeding as a common adverse event (AE) | – | – | – | –
C=CC(=O)N1CCC(C2CCNc3c(C(N)=O)c(-c4cc(OC)c(/C=C/c5ccccc5)c(OC)c4)nn32)CC1 (centres unmarked) [Example A41, (E)-7-(1-acryloylpiperidin-4-yl)-2-(3,5-dimethoxy-4-styrylphenyl)-4,5,6,7-tetrahydropyrazolo[1,5-a]pyrimidine-3-carboxamide] | – | – | – | – | – | 101 nM | 66.8 nM | 1510 nM | – | 31 fold | 3.3 nM | 458 fold | –
C=CC(=O)N1CCC(C2CCNc3c(C(N)=O)c(-c4cc(OC)c(C(C)O)c(OC)c4)nn32)CC1 (centres unmarked) [Example A46, 7-(1-acryloylpiperidin-4-yl)-2-(4-(1-hydroxyethyl)-3,5-dimethoxyphenyl)-4,5,6,7-tetrahydropyrazolo[1,5-a]pyrimidine-3-carboxamide] | – | – | – | – | – | 974 nM | 258 nM | 3810 nM | – | 165 fold | 5.9 nM | 646 fold | high affinity for Btk
C#CC(=O)N1CCC(C2CCNc3c(C(N)=O)c(-c4cc(OC)c(C)c(OC)c4)nn32)CC1 (centres unmarked) [Example A50, 2-(3,5-dimethoxy-4-methylphenyl)-7-(1-propioloylpiperidin-4-yl)-4,5,6,7-tetrahydropyrazolo[1,5-a]pyrimidine-3-carboxamide] | – | – | – | – | – | 3.2 nM | 12.3 nM | 599 nM | – | 9.4 fold | 0.34 nM | 1762 fold | –
C=CC(=O)N1CC(C2CCNc3c(C(N)=O)c(-c4cc(OC)c(Br)c(OC)c4)nn32)C1 (centres unmarked) [Example B2, 7-(1-acryloylazetidin-3-yl)-2-(4-bromo-3,5-dimethoxyphenyl)-4,5,6,7-tetrahydropyrazolo[1,5-a]pyrimidine-3-carboxamide] | – | – | – | – | – | 172 nM | 45.7 nM | 1750 nM | – | 34 fold | 5 nM | 350 fold | –
C=CC(=O)N1CC(C2CCNc3c(C(N)=O)c(-c4cc(OC)c(C)c(OC)c4)nn32)C1 (centres unmarked) [Example B3, 7-(1-acryloylazetidin-3-yl)-2-(3,5-dimethoxy-4-methylphenyl)-4,5,6,7-tetrahydropyrazolo[1,5-a]pyrimidine-3-carboxamide] | – | – | – | – | – | 157 nM | 93.1 nM | 1910 nM | – | 27 fold | 5.9 nM | 324 fold | –
C=CC(=O)N1CC2CNc3c(C(N)=O)c(-c4cc(OC)c(C)c(OC)c4)nn3C2C1 (centres unmarked) [Example C1, 7-acryloyl-2-(3,5-dimethoxy-4-methylphenyl)-5,5a,6,7,8,8a-hexahydro-4H-pyrazolo[1,5-a]pyrrolo[3,4-e]pyrimidine-3-carboxamide] | – | – | – | – | – | 380 nM | 49.6 nM | 536 nM | – | 112 fold | 3.4 nM | 158 fold | high affinity for Btk
CC#CC(=O)N1CC[C@@H](n2c(=O)n(-c3ccc(Oc4ccccc4)cc3)c3c(N)ncnc32)C1 [ONO-4059] | – | – | – | – | – | – | – | – | Bleeding as a common adverse event (AE) | – | – | – | –
